The values below come from ChEMBL document CHEMBL1155542, “Mapping the ATP-binding domain of DNA-dependent protein kinase (DNA-PK) with coumarin- and isocoumarin-derived inhibitors” (Bioorg Med Chem Lett, 2010).

A word on the IC50: it is the concentration at which inhibition is half-maximal. A higher IC50 goes with weaker potency in that assay.

Some results are limits rather than exact numbers.

This test deals with DNA-dependent protein kinase catalytic subunit (Homo sapiens, UniProt P78527). In words: Inhibition of DNA-dependent protein kinase.
DNA-dependent protein kinase catalytic subunit, sequence (P78527 whole entry): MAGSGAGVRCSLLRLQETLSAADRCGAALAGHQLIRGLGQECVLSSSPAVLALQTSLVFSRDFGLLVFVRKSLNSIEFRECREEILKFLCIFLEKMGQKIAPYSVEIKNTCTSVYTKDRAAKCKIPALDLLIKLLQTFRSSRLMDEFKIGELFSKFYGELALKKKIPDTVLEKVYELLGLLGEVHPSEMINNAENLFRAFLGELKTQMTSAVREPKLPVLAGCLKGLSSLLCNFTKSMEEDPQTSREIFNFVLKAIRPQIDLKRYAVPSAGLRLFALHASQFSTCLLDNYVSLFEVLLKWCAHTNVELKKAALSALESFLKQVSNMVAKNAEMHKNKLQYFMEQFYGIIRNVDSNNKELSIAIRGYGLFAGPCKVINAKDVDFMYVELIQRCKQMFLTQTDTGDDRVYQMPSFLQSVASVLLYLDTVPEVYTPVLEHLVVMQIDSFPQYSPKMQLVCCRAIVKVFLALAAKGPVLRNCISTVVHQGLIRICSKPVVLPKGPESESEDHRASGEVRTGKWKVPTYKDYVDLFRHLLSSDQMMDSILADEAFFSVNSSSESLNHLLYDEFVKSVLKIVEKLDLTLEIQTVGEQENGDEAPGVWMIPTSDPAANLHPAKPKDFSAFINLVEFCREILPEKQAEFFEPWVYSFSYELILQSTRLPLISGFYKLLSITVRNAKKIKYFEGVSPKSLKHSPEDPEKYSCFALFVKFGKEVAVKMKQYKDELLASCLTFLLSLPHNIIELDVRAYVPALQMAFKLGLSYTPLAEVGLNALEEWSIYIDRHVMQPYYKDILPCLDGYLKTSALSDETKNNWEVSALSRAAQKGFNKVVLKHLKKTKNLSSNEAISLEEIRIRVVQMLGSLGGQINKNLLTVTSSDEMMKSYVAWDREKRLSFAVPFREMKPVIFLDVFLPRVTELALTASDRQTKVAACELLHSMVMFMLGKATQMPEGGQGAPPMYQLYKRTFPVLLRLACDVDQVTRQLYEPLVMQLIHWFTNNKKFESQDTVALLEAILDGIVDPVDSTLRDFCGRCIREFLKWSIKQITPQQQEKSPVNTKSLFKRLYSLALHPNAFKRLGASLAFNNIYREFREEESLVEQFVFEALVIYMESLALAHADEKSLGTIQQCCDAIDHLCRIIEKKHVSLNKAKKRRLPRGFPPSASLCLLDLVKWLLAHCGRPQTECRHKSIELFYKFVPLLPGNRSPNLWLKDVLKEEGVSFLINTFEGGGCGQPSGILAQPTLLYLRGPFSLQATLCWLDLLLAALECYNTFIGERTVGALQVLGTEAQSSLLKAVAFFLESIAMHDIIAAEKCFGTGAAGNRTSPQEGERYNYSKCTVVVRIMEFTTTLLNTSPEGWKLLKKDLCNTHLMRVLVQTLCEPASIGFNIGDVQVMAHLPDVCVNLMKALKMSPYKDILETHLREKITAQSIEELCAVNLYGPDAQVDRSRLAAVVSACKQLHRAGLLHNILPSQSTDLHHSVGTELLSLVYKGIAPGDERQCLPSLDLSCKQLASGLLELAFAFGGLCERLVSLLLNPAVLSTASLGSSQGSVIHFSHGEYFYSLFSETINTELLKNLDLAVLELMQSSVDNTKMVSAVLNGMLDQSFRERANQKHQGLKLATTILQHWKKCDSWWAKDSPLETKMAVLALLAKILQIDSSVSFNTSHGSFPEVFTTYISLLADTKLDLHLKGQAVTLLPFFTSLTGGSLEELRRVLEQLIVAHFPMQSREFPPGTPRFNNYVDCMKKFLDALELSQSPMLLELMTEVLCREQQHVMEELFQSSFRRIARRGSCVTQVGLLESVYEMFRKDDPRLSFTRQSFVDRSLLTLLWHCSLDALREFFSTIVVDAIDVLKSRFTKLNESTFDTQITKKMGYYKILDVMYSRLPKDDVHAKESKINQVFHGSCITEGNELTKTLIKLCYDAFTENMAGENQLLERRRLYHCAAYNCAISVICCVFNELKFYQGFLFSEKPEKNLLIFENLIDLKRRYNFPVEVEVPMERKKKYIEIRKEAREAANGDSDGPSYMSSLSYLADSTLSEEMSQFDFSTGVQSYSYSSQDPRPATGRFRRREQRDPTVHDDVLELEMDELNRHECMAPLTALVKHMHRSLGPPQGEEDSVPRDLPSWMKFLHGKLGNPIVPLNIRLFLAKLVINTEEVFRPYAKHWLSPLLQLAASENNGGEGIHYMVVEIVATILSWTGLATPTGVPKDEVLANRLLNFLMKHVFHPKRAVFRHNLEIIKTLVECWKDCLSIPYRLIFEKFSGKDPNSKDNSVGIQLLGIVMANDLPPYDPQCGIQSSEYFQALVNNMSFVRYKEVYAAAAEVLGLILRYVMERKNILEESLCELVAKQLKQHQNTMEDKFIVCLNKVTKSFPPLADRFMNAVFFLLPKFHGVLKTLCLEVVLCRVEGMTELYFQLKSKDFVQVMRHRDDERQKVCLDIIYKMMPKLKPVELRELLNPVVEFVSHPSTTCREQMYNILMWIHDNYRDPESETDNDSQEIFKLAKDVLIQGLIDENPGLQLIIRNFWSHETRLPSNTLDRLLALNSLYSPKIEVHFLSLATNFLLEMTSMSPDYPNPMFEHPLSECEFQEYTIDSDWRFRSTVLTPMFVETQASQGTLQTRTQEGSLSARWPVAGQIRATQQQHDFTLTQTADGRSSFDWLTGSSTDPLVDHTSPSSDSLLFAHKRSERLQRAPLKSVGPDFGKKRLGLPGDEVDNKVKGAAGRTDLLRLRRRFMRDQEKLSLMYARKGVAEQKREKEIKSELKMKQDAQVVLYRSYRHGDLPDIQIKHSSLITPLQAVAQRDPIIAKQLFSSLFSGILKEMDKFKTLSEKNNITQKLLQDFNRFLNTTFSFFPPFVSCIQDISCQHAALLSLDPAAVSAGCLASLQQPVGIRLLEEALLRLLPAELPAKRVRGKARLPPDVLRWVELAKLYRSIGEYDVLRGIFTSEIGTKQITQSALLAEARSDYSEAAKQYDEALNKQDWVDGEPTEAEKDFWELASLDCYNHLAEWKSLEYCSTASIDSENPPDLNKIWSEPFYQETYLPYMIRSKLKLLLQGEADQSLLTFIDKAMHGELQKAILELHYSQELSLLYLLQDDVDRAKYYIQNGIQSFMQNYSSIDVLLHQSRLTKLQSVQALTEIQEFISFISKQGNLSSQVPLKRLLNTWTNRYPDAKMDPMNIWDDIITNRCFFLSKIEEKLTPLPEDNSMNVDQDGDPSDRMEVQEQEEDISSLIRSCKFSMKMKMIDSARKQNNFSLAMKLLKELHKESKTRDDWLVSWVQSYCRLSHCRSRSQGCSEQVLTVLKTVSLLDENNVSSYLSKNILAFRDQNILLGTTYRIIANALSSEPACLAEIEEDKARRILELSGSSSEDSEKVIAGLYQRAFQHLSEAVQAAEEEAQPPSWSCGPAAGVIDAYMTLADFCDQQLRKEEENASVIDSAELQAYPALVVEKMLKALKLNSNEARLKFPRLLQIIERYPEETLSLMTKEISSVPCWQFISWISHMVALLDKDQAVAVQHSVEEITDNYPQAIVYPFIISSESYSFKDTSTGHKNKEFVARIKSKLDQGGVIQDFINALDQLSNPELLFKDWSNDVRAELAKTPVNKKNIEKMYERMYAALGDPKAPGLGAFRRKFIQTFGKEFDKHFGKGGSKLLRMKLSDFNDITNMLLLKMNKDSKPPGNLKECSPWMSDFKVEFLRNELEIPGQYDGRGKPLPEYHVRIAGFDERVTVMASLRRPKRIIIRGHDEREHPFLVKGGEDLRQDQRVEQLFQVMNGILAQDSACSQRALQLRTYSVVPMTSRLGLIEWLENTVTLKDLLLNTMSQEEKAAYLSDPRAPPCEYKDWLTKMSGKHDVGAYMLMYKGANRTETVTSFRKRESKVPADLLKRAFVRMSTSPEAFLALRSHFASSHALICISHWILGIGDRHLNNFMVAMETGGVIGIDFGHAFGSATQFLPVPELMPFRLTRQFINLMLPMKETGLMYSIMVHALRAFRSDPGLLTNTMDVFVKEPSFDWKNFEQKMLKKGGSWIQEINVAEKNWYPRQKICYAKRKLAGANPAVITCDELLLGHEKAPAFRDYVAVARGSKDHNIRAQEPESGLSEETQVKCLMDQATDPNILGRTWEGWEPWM
In the case of `O=c1cc(N2CCOCC2)c2cc(-c3cccc(-c4ccccc4)c3)ccc2o1`, the IC50 was determined as 1.6 µM. `O=c1cc(N2CCOCC2)c2cc(-c3cc4ccccc4s3)ccc2o1` displayed an IC50 of more than 10 µM. `O=c1oc(N2CCOCC2)cc2c(-c3cccc4c3sc3ccccc34)cccc12`: the IC50 worked out at 0.34 µM. Compound `O=c1oc(N2CCOCC2)cc2c(-c3cccc4c3oc3ccccc34)cccc12` showed an IC50 of 0.33 µM. This IC50 and that of the compound before are within 1.5-fold of each other. For `O=c1cc(N2CCOCC2)c2cc(-c3cccc4c3sc3ccccc34)ccc2o1` the value was more than 10 µM; for `O=c1cc(N2CCOCC2)c2cc(-c3cccc4c3oc3ccccc34)ccc2o1`, more than 10 µM; for `O=c1cc(N2CCOCC2)c2ccc(-c3ccccc3)cc2o1`, 1.7 µM. On to `O=c1cc(N2CCOCC2)c2cc(-c3ccccc3)ccc2o1`, for which the half-inhibitory concentration (IC50) worked out at 1.8 µM. With `O=c1cc(N2CCOCC2)c2cc(-c3cccs3)ccc2o1` the figure was 1.2 µM.

Compound `O=c1oc(N2CCOCC2)cc2ccccc12` displayed a concentration for half-maximal inhibition (IC50) of more than 10 µM. For `COc1cccc2c(=O)oc(N3CCOCC3)cc12` the value was 3.2 µM; for `O=c1oc(N2CCOCC2)cc2c(-c3ccccc3)cccc12`, 2.6 µM. With `O=c1oc(N2CCOCC2)cc2c(-c3cccc(-c4ccccc4)c3)cccc12` the figure was 0.68 µM. `O=c1cc(N2CCOCC2)c2ccc(-c3cc4ccccc4s3)cc2o1`: the half-maximal inhibitory concentration (IC50) is more than 10 µM. For `O=c1cc(N2CCOCC2)c2ccc(-c3cccc4c3sc3ccccc34)cc2o1` the value was 2.1 µM; for `O=c1cc(N2CCOCC2)c2ccc(-c3cccc4c3oc3ccccc34)cc2o1`, 2.1 µM; for `O=c1cc(N2CCOCC2)c2ccc(-c3cccs3)cc2o1`, 0.6 µM. With `O=c1cc(N2CCOCC2)c2ccc(-c3cccc(-c4ccccc4)c3)cc2o1` the figure was more than 10 µM.

In turn, `CCN1CCN(CC(=O)Nc2ccc(-c3cccc4c(=O)cc(N5CCOCC5)oc34)c3sc4ccccc4c23)CC1` registered a 50% inhibitory concentration (IC50) of 0.005 µM. For `COc1ccc2oc(=O)cc(N3CCOCC3)c2c1` the value was 1.7 µM; for `COc1ccc2c(N3CCOCC3)cc(=O)oc2c1`, 5.4 µM.

The compound `O=c1cc(N2CCOCC2)oc2c(-c3cccc4c3sc3ccccc34)cccc12` displayed an IC50 of 0.03 µM. For `O=c1cc(N2CCOCC2)oc2ccccc12` the value was more than 10 µM; for `COc1cccc2c(=O)cc(N3CCOCC3)oc12`, 1.8 µM.
